Laboratory results from patent US7538131B2, “2-{-3-′2-(phenyl)-oxazol-4-ylmethoxymethyl-cyclohexylmethoxy}-propionic acid derivatives useful as peroxisome proliferator-activated receptor (PPAR) ligands for the treatment of hyperlipidemia and diabetes” (Sanofi-Aventis Deutschland GmbH, priority 2004, dated 2009).

Experiments:
human PPARgamma = target: T1, human PPARgamma (Homo sapiens, UniProt P37231); experiment: Cellular PPARgamma assay (transiently transfected HEK cells, luciferase reporter); assay type: cell-based; conditions: GAL4-humanPPARgammaLBD, firefly/Renilla luciferase ratio, 48 h
T1 construct: human PPARgamma receptor (amino acids 1152-Y475); expressed in transfected cells; host or cells: HEK cells (transiently transfected, pcDNA3-GAL4-humanPPARgammaLBD)
T1 sequence (P37231 182-477 isoform P37231-2 limits assumed): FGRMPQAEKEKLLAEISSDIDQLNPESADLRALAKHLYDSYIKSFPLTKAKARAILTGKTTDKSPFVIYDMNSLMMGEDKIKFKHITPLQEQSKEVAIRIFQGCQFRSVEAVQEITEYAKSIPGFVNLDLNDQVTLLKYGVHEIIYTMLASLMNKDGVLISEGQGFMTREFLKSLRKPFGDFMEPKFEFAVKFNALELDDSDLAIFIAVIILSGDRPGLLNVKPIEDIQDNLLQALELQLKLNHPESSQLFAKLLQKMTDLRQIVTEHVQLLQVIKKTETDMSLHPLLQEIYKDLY
Text: 4) Determination of EC50 Values of PPAR Agonists in the Cellular PPARgamma Assay
A transient transfection system is employed to determine the cellular PPARgamma activity of PPAR agonists. It is based on the use of a luciferase reporter plasmid (pGL3basic-5xGAL4-TK) and of a PPARgamma expression plasmid (pcDNA3-GAL4-humanPPARgammaLBD). Both plasmids are transiently transfected into human embryonic kidney cells (HEK cells). There is then expression in these cells of the fusion protein GAL4-humanPPARgammaLBD which binds to the GAL4 binding sites of the reporter plasmid. In the presence of a PPARgamma-active ligand, the activated fusion protein GAL4-humanPPARgammaLBD induces expression of the luciferase reporter gene, which can be detected in the form of a chemiluminescence signal after addition of a luciferase substrate. As a difference from the stably transfected PPARalpha reporter cell line, in the cellular PPARgamma assay the two components (luciferase reporter plasmid and PPARgamma expression plasmid) are transiently transfected into HEK cells because stable and permanent expression of the PPARgamma fusion protein is cytotoxic.
The luciferase reporter plasmid pGL3basic-5xGAL4-TK is based on the vector pGL3basic from Promega. The reporter plasmid is prepared by cloning five binding sites of the yeast transcription factor GAL4 (each binding site with the sequence 5′-CTCGGAGGACAGTACTCCG-3′), together with a 160 bp-long thymidine kinase promoter section (Genbank Accession #AF027128) 5′-upstream into pGL3basic. 3′-downstream of the thymidine kinase promoter is the complete luciferase gene from Photinus pyralis (Genbank Accession # Ml 5077), which is already a constituent of the plasmid pGL3basic used. The cloning and sequencing of the reporter plasmid pGL3basic-5xGAL4-TK took place in analogy to the description in Sambrook J. et. al. (Molecular cloning, Cold Spring Harbor Laboratory Press, 1989).
The PPARgamma expression plasmid pcDNA3-GAL4-humanPPARgammaLBD was prepared by first cloning the cDNA coding for amino acids 1-147 of the yeast transcription factor GAL4 (Genbank Accession #P04386) into the plasmid pcDNA3 (from Invitrogen) 3′-downstream of the cytomegalovirus promoter. Subsequently, the cDNA of the ligand-binding domain (LBD) of the human PPARgamma receptor (amino acids […]; Accession #g1480099) 3′-downstream of the GAL4 DNA binding domain was cloned. Cloning and sequencing of the PPARgamma expression plasmid pcDNA3-GAL4-humanPPARgammaLBD again took place in analogy to the description in Sambrook J. et. al. (Molecular cloning, Cold Spring Harbor Laboratory Press, 1989). Besides the luciferase reporter plasmid pGL3basic-5xGAL4-TK and the PPARgamma expression plasmid pcDNA3-GAL4-humanPPARgammaLBD, also used for the cellular PPARgamma assay are the reference plasmid pRL-CMV (from Promega) and the plasmid pBluescript SK(+) from Stratagene. All four plasmids were prepared using a plasmid preparation kit from Qiagen, which ensured a plasmid quality with a minimal endotoxin content, before transfection into HEK cells.
The activity of PPARgamma agonists is determined in a 4-day assay which is described below. Before the transfection, HEK cells were cultivated in DMEM medium (#41965-039, Invitrogen) which was mixed with the following additions: 10% FCS (#16000-044, Invitrogen),1% penicillin-streptomycin solution (#15140-122, Invitrogen) and 2 mM L-glutamine (#25030-024, Invitrogen).
Solution A, a transfection mixture which contains all four plasmids previously described in addition to DMEM medium, was prepared. […]

human PPARalpha = target: T2, human PPARalpha (Homo sapiens, UniProt Q07869); experiment: Cellular PPARalpha assay (stably transfected HEK luciferase reporter cell line); assay type: cell-based; conditions: GR-GAL4-humanPPARalpha-LBD, 24 h
T2 construct: human PPARalpha receptor (amino acids S167-Y468); expressed in transfected cells; host or cells: HEK cells (stably transfected, pcDNA3, CMV promoter)
T2 sequence (Q07869 167-468): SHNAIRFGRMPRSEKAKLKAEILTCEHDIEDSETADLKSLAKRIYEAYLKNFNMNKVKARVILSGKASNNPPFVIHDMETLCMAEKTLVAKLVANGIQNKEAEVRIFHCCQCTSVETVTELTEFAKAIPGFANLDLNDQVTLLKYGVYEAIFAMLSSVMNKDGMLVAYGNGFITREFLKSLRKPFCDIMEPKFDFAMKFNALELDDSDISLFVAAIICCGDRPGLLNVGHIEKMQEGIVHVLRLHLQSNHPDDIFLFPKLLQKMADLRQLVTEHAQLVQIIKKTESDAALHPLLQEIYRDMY
Procedure: 1) Determination of EC50 Values of PPAR Agonists in the Cellular PPARalpha Assay
The activity of the novel compounds of the present invention was tested as follows The potency of substances which bind to human PPARalpha and activate it in an agonistic manner is analyzed using a stably transfected HEK cell line (HEK=human embryo kidney) which is referred to here as PPARalpha reporter cell line. It contained two genetic elements, a luciferase reporter element (pdeltaM-GAL4-Luc-Zeo) and a PPARalpha fusion protein (GR-GAL4-humanPPARalpha-LBD) which mediates expression of the luciferase reporter element depending on a PPARalpha ligand. The stably and constitutively expressed fusion protein GR-GAL4-humanPPARalpha-LBD binds in the cell nucleus of the PPARalpha reporter cell line via the GAL4 protein portion to the GAL4 DNA binding motifs 5′-upstream of the luciferase reporter element which was stably integrated in the genome of the cell line. There is only little expression of the luciferase reporter gene without addition of a PPARalpha ligand if fatty acid-depleted fetal calf serum (cs-FCS) is used in the assay. PPARalpha ligands bind and activate the PPARalpha fusion protein and thereby bring about expression of the luciferase reporter gene. The luciferase which is formed can be detected by means of chemiluminescence via an appropriate substrate.
The PPARalpha reporter cell line was prepared in two steps. Firstly, the luciferase reporter element was constructed and stably transfected into HEK cells. For this purpose, five binding sites of the yeast transcription factor GAL4 (in each case 5′-CGGAGTACTGTCCTCCGAG-3′) were cloned in 5′-upstream of a 68 bp-long minimal MMTV promoter (Genbank Accession #V01175). The minimal MMTV promoter section contains a CCAAT box and a TATA element in order to enable efficient transcription by RNA polymerase II. The cloning and sequencing of the GAL4-MMTV construct took place in analogy to the description of Sambrook J. et. al. (Molecular Cloning, Cold Spring Harbor Laboratory Press, 1989). Which is hereby incorporated by reference herein.
The complete Photinus pyralis luciferase gene (Genbank Accession #M15077) was cloned in 3′-downstream of the GAL4-MMTV element. After sequencing, the luciferase reporter element consisting of five GAL4 binding sites, MMTV promoter and luciferase gene was subcloned into a plasmid which confers zeozin resistance in order to obtain the plasmid pdeltaM-GAL4-Luc-Zeo. This vector was transfected into HEK cells in accordance with the statements in Ausubel, F.M. et al. (Current Protocols in Molecular Biology, Vol. 1-3, John Wiley & Sons, Inc., 1995).
In a second step, the PPARalpha fusion protein (GR-GAL4-humanPPARalpha-LBD) was introduced into the stable cell clone described. For this purpose, initially the cDNA coding for the N-terminal 76 amino acids of the glucocorticoid receptor (Genbank Accession # P04150) was linked to the cDNA section coding for amino acids 1-147 of the yeast transcription factor GAL4 (Genbank Accession #P04386). The cDNA of the ligand-binding domain of the human PPARalpha receptor (amino acids S167-Y468; Genbank Accession #S74349) was cloned in at the 3′ end of this GR-GAL4 construct. The fusion construct prepared in this way (GR-GAL4-humanPPARalpha-LBD) was subcloned into the plasmid pcDNA3 (from Invitrogen) in order to enable constitutive expression therein by the cytomegalovirus promoter. This plasmid was linearized with a restriction endonuclease and stably transfected into the previously described cell clone containing the luciferase reporter element. The finished PPARalpha reporter cell line which contains a luciferase reporter element and constitutively expresses the PPARalpha fusion protein (GR-GAL4-humanPPARalpha-LBD) was isolated by selection with zeozin (0.5 mg/ml) and G418 (0.5 mg/ml).
The activity of PPARalpha agonists was determined in a 3-day assay which is described below: […]

Structure (SMILES): CC(C)c1oc(-c2ccc3ccccc3c2)nc1COC[C@@H]1CCC[C@H](COC(C)(C)C(=O)O)C1 [Example 11, 2-{(1S,3R)-3-[5-Isopropyl-2-(naphtha-2-yl)oxazol-4-ylmethoxymethyl]cyclohexylmethoxy}-2-methylpropionic acid]
- EC50 (human PPARgamma): 1790 nM
- EC50 (human PPARalpha): 70.9 nM

Structure (SMILES): Cc1ccc(-c2nc(COC[C@H]3CCC[C@@H](COC(C)(C)C(=O)O)C3)c(C(C)C)o2)cc1C [Example 12, 2-{(1R,3S)-3-[2-(3,4-Dimethylphenyl)-5-isopropyloxazol-4-ylmethoxymethyl]cyclohexylmethoxy}-2-methylpropionic acid]
- EC50 (human PPARgamma): 133 nM
- EC50 (human PPARalpha): 5.5 nM

Structure (SMILES): Cc1oc(-c2ccc(-c3ccccc3)cc2)nc1COC[C@H]1CCC[C@@H](COC(C)(C)C(=O)O)C1 [Example 13, 2-[(1R,3S)-3-(2-Biphenyl-4-yl-5-methyloxazol-4-ylmethoxymethyl)cyclohexylmethoxy]-2-methylpropionic acid]
- EC50 (human PPARgamma): 124 nM
- EC50 (human PPARalpha): 313 nM

Structure (SMILES): CC(C)c1oc(-c2ccc3ccccc3c2)nc1COC[C@H]1CCC[C@@H](COC(C)(C)C(=O)O)C1 [Example 14, 2-{(1R,3S)-3-[5-Isopropyl-2-(naphth-2-yl)oxazol-4-ylmethoxymethyl]cyclohexylmethoxy}-2-methylpropionic acid]
- EC50 (human PPARgamma): 127 nM
- EC50 (human PPARalpha): 18.7 nM

Structure (SMILES): CC(C)c1oc(-c2cccc(C(F)(F)F)c2)nc1COC[C@H]1CCC[C@@H](COC(C)(C)C(=O)O)C1 [Example 16, 2-{(1R,3S)-3-[5-Isopropyl-2-(3-trifluoromethylphenyl)oxazol-4-ylmethoxymethyl]cyclohexylmethoxyl}-2-methylpropionic acid]
- EC50 (human PPARgamma): 199 nM
- EC50 (human PPARalpha): 12.7 nM

Structure (SMILES): CC(C)Cc1ccc(-c2nc(COC[C@H]3CCC[C@@H](COC(C)(C)C(=O)O)C3)c(C(C)C)o2)cc1 [Example 17, 2-{(1R,3S)-3-[2-(4-Isobutylphenyl)-5-isopropyloxazol-4-ylmethoxymethyl]cyclohexylmethoxy}-2-methylpropionic acid]
- EC50 (human PPARgamma): 109 nM
- EC50 (human PPARalpha): 42 nM

Structure (SMILES): CC(C)c1oc(-c2ccc(C(C)(C)C)cc2)nc1COC[C@H]1CCC[C@@H](COC(C)(C)C(=O)O)C1 [Example 18, 2-{(1R,3S)-3-[2-(4-tert-butylphenyl)-5-isopropyloxazol-4-ylmethoxymethyl]cyclohexylmethoxy}-2-methylpropionic acid]
- EC50 (human PPARgamma): 38.3 nM
- EC50 (human PPARalpha): 20.5 nM

Structure (SMILES): CCc1oc(-c2ccc3ccccc3c2)nc1COC[C@H]1CCC[C@@H](COC(C)(C)C(=O)O)C1 [Example 19, 2-[(1R,3S)-3-(5-Ethyl-2-naphthalen-2-yl-oxazol-4-ylmethoxymethyl)cyclohexylmethoxy]-2-methylpropionic acid]
- EC50 (human PPARgamma): 192 nM
- EC50 (human PPARalpha): 1.8 nM

Structure (SMILES): Cc1oc(-c2ccc(Oc3ccccc3)cc2)nc1COC[C@H]1CCC[C@@H](COC(C)(C)C(=O)O)C1 [Example 20, 2-Methyl-2-{(1R,3S)-3-[5-methyl-2-(4-phenoxyphenyl)oxazol-4-ylmethoxymethyl]cyclohexylmethoxy}propionic acid]
- EC50 (human PPARgamma): 71.4 nM
- EC50 (human PPARalpha): 149 nM

Structure (SMILES): CCc1oc(-c2ccc(C)c(C)c2)nc1COC[C@H]1CCC[C@@H](COC(C)(C)C(=O)O)C1 [Example 21, 2-{(1R,3S)-3-[2-(3,4-Dimethylphenyl)-5-ethyloxazol-4-ylmethoxymethyl]cyclohexylmethoxyl}-2-methylpropionic acid]
- EC50 (human PPARgamma): 184 nM
- EC50 (human PPARalpha): 1.6 nM
